Laboratory results reported in patent US11680043B2 (priority 2021, dated 2023).
Values joined by “and” are separate entries in the source; they are usually repeats but may differ in a detail not shown here. Identical values can stand only once. Counter-ions that a name gives are not always drawn.

Test: Solubility of psilocin salts in saline
Settings: for XRPD of Residue: solid residue after 5 hrs in saline (Table 9)
[1] = Saline, updated summary (Table 10)
[2] = pH of saturated solution in saline (Table 9)

CN(C)CCc1c[nH]c2cccc(O)c12.O=S(=O)(O)c1cccc2c(S(=O)(=O)O)cccc12 [Psilocin 1,5-napthalenedisulfonate NAP Pattern 1]
pH at 5 hrs [1]: 2.0 | pH at 5 hrs [2]: 2.0 | XRPD of Residue: NAP Pattern 1

CN(C)CCc1c[nH]c2cccc(O)c12.O=C(O)c1ccccc1O [Psilocin salicylate SAL Pattern 1, Psilocin salicylate]
pH at 5 hrs [1]: 4.2 | pH at 5 hrs [2]: 4.2 | XRPD of Residue: SAL Pattern 1

CN(C)CCc1c[nH]c2cccc(O)c12 [Psilocin free base, Psilocin, reference compound]
pH at 5 hrs [1]: 9.8 and 9.9 | pH at 5 hrs [2]: 9.8 and 9.9 | XRPD of Residue: Freeform Pattern 1

CN(C)CCc1c[nH]c2cccc(O)c12 [Psilocin hydrochloride HCl Pattern 1, Psilocin hydrochloride]
pH at 5 hrs (Saline, updated summary (Table 10), hydrochloride): 4.0 and 5.4 | pH at 5 hrs (pH of saturated solution in saline (Table 9), hydrochloride): 6.0 and 6.1

CN(C)CCc1c[nH]c2cccc(O)c12.O=C(O)c1ccccc1 [Psilocin benzoate BEN Pattern 1, Psilocin benzoate]
pH at 5 hrs [1]: 6.8 and 6.9 | Solubility in Saline (Table 4 summary): 5000 µg/mL | pH at 5 hrs [2]: 6.8 and 6.9 | XRPD of Residue: BEN Pattern 1
